Test systems include CAKI-1 renal; COLO 205 colon; DLD-1 colon; DMS 114 small cell lung; DMS 273 small cell lung; HOP-18 NSCLC; HT29 colon; K-562 leukemia; KM20L2 colon; LXFL 529 NSCLC; M19-MEL melanoma; MALME-3M melanoma; RXF-631 renal; SNB-78 CNS; XF 498 CNS; A498 renal.
Holding throughout (assay): inhibition of tumour cell growth, NCI panel, 48 h

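Exposure lasted 48 hours, with cells grown in 96-well plates and compounds tested at five concentrations. GI50 is the concentration that inhibits growth by half. The concentration for full growth arrest is given as TGI.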

With `O=C1c2ccccc2C(=O)C1C(c1ccc(F)cc1)C1C(=O)c2ccccc2C1=O`, the TGI in the test on CAKI-1 renal, in the test with COLO 205 colon, with DLD-1 colon, with DMS 114 small cell lung, in the test with DMS 273 small cell lung and in the test on HOP-18 NSCLC was over 100 µM throughout. For the same molecule, the TGI with HT29 colon, in the test on K-562 leukemia, in the test on KM20L2 colon, with LXFL 529 NSCLC, with M19-MEL melanoma and with MALME-3M melanoma was over 100 µM each time. The TGI with RXF-631 renal, in the test with SNB-78 CNS and in the test on XF 498 CNS was over 100 µM each time.
For `C=C(C(=C)N1N=NC2C3CCC(C3)C21)N1N=NC2C3CCC(C3)C21` (configuration not stated), the TGI in the test on CAKI-1 renal, with COLO 205 colon, with DLD-1 colon, in the test with DMS 114 small cell lung, in the test on DMS 273 small cell lung and in the test on HOP-18 NSCLC was over 100 µM each time. The TGI in the test with HT29 colon, in the test on K-562 leukemia, in the test on LXFL 529 NSCLC, in the test on M19-MEL melanoma, in the test on MALME-3M melanoma and in the test on RXF-631 renal was over 100 µM each time. Besides, the TGI in the test on SNB-78 CNS and with XF 498 CNS was over 100 µM in each case.
Regarding `C/C=C1\CN2CCc3c([nH]c4ccccc34)C2C=C1CCO` (configuration not stated), the TGI in the test with CAKI-1 renal, with COLO 205 colon, in the test on DLD-1 colon, in the test on DMS 114 small cell lung, in the test with DMS 273 small cell lung and with HT29 colon was over 340 µM in each case. The TGI in the test with K-562 leukemia, in the test on KM20L2 colon, with LXFL 529 NSCLC, with M19-MEL melanoma, in the test with MALME-3M melanoma and with RXF-631 renal was over 340 µM each time. Moreover, the TGI with XF 498 CNS was over 340 µM.
Take `CCCCNC(=O)C1C2CCC(O2)C1C(=O)O` (configuration not stated): the TGI in the test on A498 renal was 32.4 µM; with COLO 205 colon it was 32.5 µM; in the test on DLD-1 colon, 49.4 µM; with DMS 114 small cell lung, 28.2 µM; in the test on DMS 273 small cell lung, over 100 µM; with HOP-18 NSCLC it was 90.9 µM. Besides, the TGI is 55.4 µM with HT29 colon; 27.4 µM in the test with KM20L2 colon; 34.6 µM with LXFL 529 NSCLC; 41.4 µM in the test with M19-MEL melanoma; 43.7 µM in the test with MALME-3M melanoma; over 100 µM in the test with RXF-631 renal. The TGI with SNB-78 CNS was over 100 µM; in the test with XF 498 CNS, 19.2 µM.
Turning to `O=c1cc(-c2ccco2)[nH]c2cc3c(cc12)OCO3`, the TGI was over 100 µM in the test on A498 renal; 78.5 µM in the test with COLO 205 colon; over 100 µM in the test on DLD-1 colon; over 100 µM in the test on DMS 114 small cell lung; over 100 µM with DMS 273 small cell lung; over 100 µM in the test with HT29 colon. For the same molecule, the TGI with K-562 leukemia is over 100 µM; in the test with KM20L2 colon, 66.8 µM; with LXFL 529 NSCLC it was over 100 µM; in the test on M19-MEL melanoma, over 100 µM; with MALME-3M melanoma, over 100 µM; in the test on RXF-631 renal, over 100 µM. Further, in the test with XF 498 CNS, the TGI was determined as 82.4 µM. In addition, the GI50 in the test on DMS 114 small cell lung is 37.2 µM; in the test on KM20L2 colon, 21.2 µM.
For `COc1ccc(/C=C2\CCC(CCN(C)C)(C3=CCCC3)C2=O)cc1Br` (configuration not stated), the TGI in the test with A498 renal amounted to 23.5 µM; with CAKI-1 renal, 21.2 µM; in the test with COLO 205 colon, 3.01 µM; in the test with DLD-1 colon it was 16.4 µM; in the test with DMS 114 small cell lung it was 14.9 µM; in the test on DMS 273 small cell lung, 14.6 µM. Also, the TGI was found to be 25.2 µM in the test on HOP-18 NSCLC; 7.14 µM with HT29 colon; 5.23 µM in the test on K-562 leukemia; 3.56 µM in the test on KM20L2 colon; 15.8 µM with LXFL 529 NSCLC; 7.86 µM with M19-MEL melanoma. The TGI is 28 µM with MALME-3M melanoma, 31.1 µM in the test with RXF-631 renal, 30.4 µM in the test with SNB-78 CNS and 8.72 µM in the test with XF 498 CNS.
